Experimental findings from US9687479B2, “Multisubstituted aromatic compounds as serine protease inhibitors” (VERSEON CORPORATION, priority 2013, dated 2017) are described below.

As usually defined, the pIC50 is −log10 of the IC50, conventionally taken in molar units. As a reminder, the AUC is concentration integrated over time.

Series [1] deals with Recombinant human tissue kallikrein (KLK1) (Homo sapiens (Human), UniProt P06870). In words: KLK1 kallikrein activity inhibition assay (Pro-Phe-Arg-AMC substrate). Format: biochemical. The method, then:
The KLK1 kallikrein activity reported herein (e.g., Tables B and C) was obtained as follows. Recombinant human tissue kallikrein (KLK1) was obtained from R&D Systems. […] KLK1 enzyme is activated by incubating 0.5 mg/ml KLK1 combined with 0.1 μg/ml thermolysin in a buffer of 0.05 M Tres (pH 7.5), 0.15 M NaCl, and 0.01 M CaCl2 for one hour at 37° C. The thermolysin is then deactivated by the addition of equal parts 20 mM 1, 10 phenanthroline solution in water. The activated KLK1 solution is then added to CHES buffer (0.05 M CHES, 0.15 M NaCl, 0.01 M CaCl2, pH 10) for a final concentration of 5 nM along with the test article and incubated for 10 minutes. […] Substrate activation is read 10 minutes after substrate addition using a Synergy H1 multifunction plate reader (Biotek) programmed with a 360 nm excitation wavelength and a 480 nm emission wavelength. Inhibitor response was established by adding test compound as ten point, three-fold serial dilutions, as known in the art. The IC50 was calculated by plotting the percent (%) inhibition against compound concentration and fitting the data to a constrained four parameter sigmoidal curve, as known in the art.

Another series addresses Human KLKB1 (Homo sapiens (Human), UniProt P03952). Kind of series: KLKB1 kallikrein activity inhibition assay (chromogenic substrate S-2302). The series is classed as biochemical. Put shortly: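 Enzyme at a final 3 nM was assayed in 0.05 M Tris pH 7.4, 0.01 M NaCl and 0.2% PEG-8000 at room temperature, with compounds as ten-point threefold dilutions.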
A short description of series [2]: Pharmacokinetics in mice (i.v. and p.o.). Format: in vivo, male CD-1 mice. As to conditions: plasma. The method, then:
Each compound is administered intravenously (i.v.) as a single dose via tail vein or orally (p.o.) as a single dose via gastric gavage to male CD-1 mice of nominal weights between 20 g and 26 g. Nominal doses are 1 mg/kg and 5 mg/kg for i.v. and p.o., respectively. In some examples (dose type A), both p.o. and i.v. doses are prepared by dissolving the test compound in 5% dimethyl acetamide and diluted in tetraethylene glycol for a final concentration of 0.25 mg/mL. In other examples (dose type B), i.v. doses are prepared by dissolving test compounds in 20% dimethyl acetamide, 40% polyethylene glycol 300 and 40% phosphate buffered saline, and p.o. doses are prepared by dissolving test compounds in carboxymethyl cellulose suspension (1% by weight) in water and 2.5% dimethyl acetamide.
Animals are housed in standard holding cages with food and water available ad libitum except for animals used for p.o. dosing which are fasted overnight prior to dosing. Samples are taken in triplicate via cardiac puncture at times prior to dosing and at 0.083 (i.v. only), 0.25, 0.5, 1, 2, 4, 8, and 24 hours after administration. Plasma is obtained by centrifuge and stored frozen until analyzed by LC-MS/MS using a Shimadzu VP System HPLC coupled to a Applied Biosystems MDS SCIEX API 3000 triple quadrapole MS. Assay results are calibrated using reference samples prepared in a range between 1.5 and 5000 ng/mL.
Pharmacokinetic parameters are calculated from mean concentration values using a non-compartmental analysis as described in the following and as apparent to those of ordinary skill in the art. Half-lives (t1/2) and elimination rate constants (λ) are determined by log linear regression using equal weighting on the last three finite sample time points. Concentration at time zero (C0) for the i.v. data is established by the extrapolation of log linear regression using equal weighting on the first three sample time points. Area under the curve (AUC) values are calculated using linear trapezoidal integration. Systemic clearance (CL) is calculated as the ratio of dosage and AUC. […] Percent oral bioavailability (% F) is determined from the ratio of i.v. and p.o. AUC values weighted by dosage.

Another series has as its target Human thrombin (Homo sapiens (Human), UniProt P00734). Kind of series: Thrombin protease activity inhibition assay (chromogenic substrate S-2238). To be noted: 3 nM thrombin, 125 μM S-2238, 10 min pre-incubation, RT. Format: biochemical. Put shortly:
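Ten-point, three-fold serial dilutions of compound tested against 3 nM enzyme at RT in Tris buffer (0.05 M, pH 7.4) with 0.015 M NaCl and 0.01% PEG-8000.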

pIC50: −log10 of the molar value. Like-named read-outs stand apart in the source and are kept apart here.

Chain of Human KLKB1 (P03952 391-638 limits assumed): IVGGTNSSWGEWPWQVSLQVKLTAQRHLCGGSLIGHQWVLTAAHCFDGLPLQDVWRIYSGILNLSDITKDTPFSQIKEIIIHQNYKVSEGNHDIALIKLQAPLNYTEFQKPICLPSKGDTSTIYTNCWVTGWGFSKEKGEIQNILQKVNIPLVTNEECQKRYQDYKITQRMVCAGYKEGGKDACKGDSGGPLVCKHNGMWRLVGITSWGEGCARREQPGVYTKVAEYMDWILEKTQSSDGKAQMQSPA
Chain of Human KLKB1 (P03952 20-390 partner limits assumed): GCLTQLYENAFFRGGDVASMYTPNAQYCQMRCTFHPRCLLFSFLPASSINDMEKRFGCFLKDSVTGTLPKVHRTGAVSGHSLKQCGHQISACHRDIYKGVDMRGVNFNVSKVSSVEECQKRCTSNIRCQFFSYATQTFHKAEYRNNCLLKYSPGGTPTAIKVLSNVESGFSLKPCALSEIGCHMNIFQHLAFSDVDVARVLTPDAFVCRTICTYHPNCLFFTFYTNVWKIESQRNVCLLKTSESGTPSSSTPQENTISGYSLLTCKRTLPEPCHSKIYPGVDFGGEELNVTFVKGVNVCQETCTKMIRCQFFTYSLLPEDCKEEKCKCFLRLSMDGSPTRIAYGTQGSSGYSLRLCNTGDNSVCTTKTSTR
Chain of Recombinant human tissue kallikrein (KLK1) (P06870 25-262): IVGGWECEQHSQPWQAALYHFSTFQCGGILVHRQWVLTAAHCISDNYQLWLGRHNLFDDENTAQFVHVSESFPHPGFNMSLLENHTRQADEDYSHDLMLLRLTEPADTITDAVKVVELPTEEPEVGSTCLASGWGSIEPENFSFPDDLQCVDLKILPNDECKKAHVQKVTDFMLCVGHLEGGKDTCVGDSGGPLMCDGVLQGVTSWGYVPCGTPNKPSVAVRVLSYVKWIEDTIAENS

For `COc1ccccc1C(=O)n1nc(-c2ncccn2)nc1NCc1ccccc1` [Cmpd 18], the pIC50 in series [1] (Table C) is 4.00 to 5.00; against Human KLKB1 (Table C), 6.00 to 7.00.
For `CC(C)(C)C(=O)n1nc(C2CCNCC2)c(F)c1NCc1ccc(Cl)s1` [Cmpd 24], in series [2] (male, CD-1, mouse, po, 5 mg/kg, read-out: % F), the bioavailability stood at 70%. The AUC in series [2] (mouse, iv, male CD-1 mice, single i.v. dose 1 mg/kg, dose type A (5% dimethyl acetamide, tetraethylene glycol), read-out: i.v. AUC) amounted to 200 ng·h/mL; in series [2] (mouse, po, male CD-1 mice, single p.o. dose 5 mg/kg, dose type A (5% dimethyl acetamide, tetraethylene glycol), read-out: p.o. AUC), 600 ng·h/mL. Further, the C0 in series [2] (mouse, iv, male CD-1 mice, single i.v. dose 1 mg/kg, dose type A (5% dimethyl acetamide, tetraethylene glycol), read-out: i.v. C0) is 200 ng/mL. Further, the clearance in series [2] (mouse, iv, male CD-1 mice, single i.v. dose 1 mg/kg, dose type A (5% dimethyl acetamide, tetraethylene glycol), read-out: i.v. CL (converted)) was 83.3 mL/min/kg. Further, the Vd in series [2] (mouse, iv, male CD-1 mice, single i.v. dose 1 mg/kg, dose type A (5% dimethyl acetamide, tetraethylene glycol), read-out: i.v. Vd) stood at 8 L/kg. Further, the half-life was 1 h in series [2] (mouse, iv, male CD-1 mice, single i.v. dose 1 mg/kg, dose type A (5% dimethyl acetamide, tetraethylene glycol), read-out: i.v. t1/2 (converted)) and 1 h in series [2] (mouse, po, male CD-1 mice, single p.o. dose 5 mg/kg, dose type A (5% dimethyl acetamide, tetraethylene glycol), read-out: p.o. t1/2 (converted)).
For the molecule `O=C(O)Cn1cccc(-c2cc(NCc3ccc(Cl)s3)[nH]n2)c1=O` [Cmpd 59, 2-[3-(5-[(5-chlorothiophen-2-yl)methyl]amino-1H-pyrazol-3-yl)-2-oxo-1,2-dihydropyridin-1-yl]acetic acid], the pIC50 against Human thrombin was 4.00 to 5.00; in series [1] (Table B) it was less than 4.00; against Human KLKB1 (Table B) it was 5.00 to 6.00.
`CC(C)(C)C(=O)n1nc(-c2cccn(Cc3cccnn3)c2=O)cc1NCc1ccc(Cl)s1` [Cmpd 81, 3-(5-[(5-chlorothiophen-2-yl)methyl]amino-1-(2,2-dimethylpropanoyl)-1H-pyrazol-3-yl)-1-(pyridazin-3-ylmethyl)-1,2-dihydropyridin-2-one]: the results for the pIC50 (at Human thrombin; in series [1] (Table B); against Human KLKB1 (Table B)) were greater than 7.00, less than 4.00 and 5.00 to 6.00, respectively.
`O=C(c1cccc2c1OCCO2)n1nc(-c2cccn(Cc3ccccn3)c2=O)cc1NCc1ccc(Cl)s1` [Cmpd 113, 3-(5-[(5-chlorothiophen-2-yl)methyl]amino-1-[(2,3-dihydro-1,4-benzodioxin-5-yl)carbonyl]-1H-pyrazol-3-yl)-1-(pyridin-2-ylmethyl)-1,2-dihydropyridin-2-one]: the pIC50 on Human thrombin is greater than 7.00; in series [1] (Table B), 4.00 to 5.00; on Human KLKB1 (Table B), 6.00 to 7.00.
As for `COc1ccc(C(=O)n2nc(-c3cccn(Cc4cccnc4)c3=O)cc2NCc2ccc(Cl)s2)c(OC)c1` [Cmpd 126, 3-(5-[(5-chlorothiophen-2-yl)methyl]amino-1-[(2,4-dimethoxyphenyl)carbonyl]-1H-pyrazol-3-yl)-1-(pyridin-3-ylmethyl)-1,2-dihydropyridin-2-one], the negative logarithm of the IC50 (pIC50) on Human thrombin is greater than 7.00; in series [1] (Table B), less than 4.00; against Human KLKB1 (Table B), 5.00 to 6.00.
Taken in the same sequence, the figures for `COc1ccccc1C(=O)n1nc(-c2ccc[nH]c2=O)cc1NCc1ccc(Cl)s1` [Cmpd 132, 3-(5-[(5-chlorothiophen-2-yl)methyl]amino-1-[(2-methoxyphenyl)carbonyl]-1H-pyrazol-3-yl)-1,2-dihydropyridin-2-one] were greater than 7.00, less than 4.00 and 5.00 to 6.00.
Taken in the same sequence, the figures for `COc1ccccc1C(=O)n1nc(-c2cccn(Cc3cccnn3)c2=O)cc1NCc1ccc(Cl)s1` [Cmpd 138, 3-(5-[(5-chlorothiophen-2-yl)methyl]amino-1-[(2-methoxyphenyl)carbonyl]-1H-pyrazol-3-yl)-1-(pyridazin-3-ylmethyl)-1,2-dihydropyridin-2-one] were greater than 7.00, less than 4.00 and 6.00 to 7.00.
With `O=C(c1ccccc1Cl)n1nc(-c2cccn(Cc3ccoc3)c2=O)cc1NCc1ccc(Cl)s1` [Cmpd 244, 3-1-[(2-chlorophenyl)carbonyl]-5-[(5-chlorothiophen-2-yl)methyl]amino-1H-pyrazol-3-yl-1-(furan-3-ylmethyl)-1,2-dihydropyridin-2-one], the results for the pIC50 at Human thrombin and at Human KLKB1 (Table B) were greater than 7.00 and 6.00 to 7.00, respectively.
Taken in the same sequence, the figures for `Cn1cccc(-c2cc(NCc3ccc(Cl)s3)n(C(=O)C3(COC(=O)C4(CO)CC4)CC3)n2)c1=O` [Cmpd 265, 1-[(5-[(5-chlorothiophen-2-yl)methyl]amino-3-(1-methyl-2-oxo-1,2-dihydropyridin-3-yl)-1H-pyrazol-1-yl)carbonyl]cyclopropylmethyl 1-(hydroxymethyl)cyclopropane-1-carboxylate] were greater than 7.00 and 5.00 to 6.00.
For `Nc1ccccc1C(=O)n1nc(-c2ncccc2F)cc1NCc1ccc(Cl)s1` [Cmpd 276], the pIC50 in series [1] (Table B) was 4.00 to 5.00; against Human KLKB1 (Table B), 5.00 to 6.00.
Taken in the same sequence, the figures for `Nc1ccccc1C(=O)n1nc(-c2ccco2)cc1NCc1ccc(Cl)s1` [Cmpd 277] were 4.00 to 5.00 and 5.00 to 6.00.
Taken in the same sequence, the figures for `COc1ccccc1C(=O)n1nc(C2CCCCC2O)cc1NCc1ccc(Cl)s1` (stereo not drawn) [Cmpd 282] were less than 4.00 and 5.00 to 6.00.
For the molecule `O=C(c1ccsc1)n1nc(-c2cccnn2)cc1NCc1ccc(Cl)s1` [Cmpd 292], the pIC50 was less than 4.00 in series [1] (Table B) and 6.00 to 7.00 at Human KLKB1 (Table B).
Taken in the same sequence, the figures for `O=C(c1ccsc1)n1nc(-c2ccccn2)cc1NCc1ccc(Cl)s1` [Cmpd 293] were less than 4.00 and 6.00 to 7.00.
Taken in the same sequence, the figures for `O=C(c1ccoc1)n1nc(C2CCOCC2)c(F)c1NCc1ccc(Cl)s1` [Cmpd 294] were less than 4.00 and 5.00 to 6.00.
In the case of `COc1ccc(CNc2nc(-c3ccccn3)nn2C(=O)CCc2ccccc2)cc1` [Cmpd 323], the pIC50 in series [1] (Table C) is 4.00 to 5.00; at Human KLKB1 (Table C) it was 5.00 to 6.00.
Taken in the same sequence, the figures for `COc1ccccc1C(=O)n1nc(-c2ccccn2)nc1NCc1nccs1` [Cmpd 332] were 6.00 to 7.00 and 4.00 to 5.00.
With `COc1ccc(CNc2nc(-c3ccccn3)nn2C(=O)c2ccccc2)cc1` [Cmpd 360], the pIC50 (in series [1] (Table C); on Human KLKB1 (Table C)) was 5.00 to 6.00 in each case.
On to `COc1ccc(CNc2nc(-c3cccnc3)nn2C(=O)c2ccccc2)cc1` [Cmpd 361], for which the pIC50 (in series [1] (Table C); against Human KLKB1 (Table C)) was 5.00 to 6.00 throughout.
Regarding `O=C(c1ccccc1)n1nc(-c2ccccn2)nc1NCc1ccccc1` [Cmpd 362], the figures for the pIC50 (in series [1] (Table C); against Human KLKB1 (Table C)) were 4.00 to 5.00 and 6.00 to 7.00, respectively.
Consider `COc1ccccc1C(=O)n1nc(-c2cccnc2)nc1SC` [Cmpd 366, 3-1-[(2-methoxyphenyl)carbonyl]-5-(methylsulfanyl)-1H-1,2,4-triazol-3-ylpyridine], for which the pIC50 (in series [1] (Table C); against Human KLKB1 (Table C)) was 5.00 to 6.00 each time.
Take `COc1ccc(C(=O)n2nc(C3CCOCC3)nc2NCc2ccc(Cl)s2)c(OC)c1` [Cmpd 384]: the pIC50 was 4.00 to 5.00 in series [1] (Table C) and 6.00 to 7.00 against Human KLKB1 (Table C).
Taken in the same sequence, the figures for `COc1ccccc1C(=O)n1nc(C2CCNCC2)nc1NCc1ccc(Cl)s1` [Cmpd 387] were 4.00 to 5.00 and greater than 7.00.
Taken in the same sequence, the figures for `Cc1ccccc1C(=O)n1nc(-c2ccccn2)nc1NCc1ccc(Cl)s1` [Cmpd 391] were 4.00 to 5.00 and 6.00 to 7.00.
Taken in the same sequence, the figures for `COc1ccccc1C(=O)n1nc(-c2ccc(N(C)C)cc2)nc1NCc1ccc(Cl)s1` [Cmpd 393] were 4.00 to 5.00 and 6.00 to 7.00.
In the case of `O=C(c1ccsc1)n1nc(-c2ccncc2)nc1NCc1ccccc1` [Cmpd 407], the pIC50 in series [1] (Table C) was less than 4.00; at Human KLKB1 (Table C) it was 6.00 to 7.00.
